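Interpolation was linear, between the two tested concentrations surrounding the appropriate level; five concentrations were tested over 48 hours in 96-well plates. GI50: concentration for 50% inhibition of growth. TGI: total growth inhibition.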
How the values were obtained:
Assay in all cases: NCI tumour cell line growth inhibition, 48 h
786-0 renal = tested on: 786-0 renal
A498 renal = tested on: A498 renal
A549 NSCLC = tested on: A549 NSCLC
ACHN renal = tested on: ACHN renal
BT-549 breast = tested on: BT-549 breast
CAKI-1 renal = tested on: CAKI-1 renal
CCRF-CEM leukemia = tested on: CCRF-CEM leukemia
COLO 205 colon = tested on: COLO 205 colon
DU-145 prostate = tested on: DU-145 prostate
EKVX NSCLC = tested on: EKVX NSCLC
HCC-2998 colon = tested on: HCC-2998 colon
HCT-116 colon = tested on: HCT-116 colon
HCT-15 colon = tested on: HCT-15 colon
HL-60(TB) leukemia = tested on: HL-60(TB) leukemia
HOP-62 NSCLC = tested on: HOP-62 NSCLC
HOP-92 NSCLC = tested on: HOP-92 NSCLC
HS 578T breast = tested on: HS 578T breast
HT29 colon = tested on: HT29 colon
IGROV1 ovarian = tested on: IGROV1 ovarian
K-562 leukemia = tested on: K-562 leukemia
KM12 colon = tested on: KM12 colon
LOX IMVI melanoma = tested on: LOX IMVI melanoma
M14 melanoma = tested on: M14 melanoma
MALME-3M melanoma = tested on: MALME-3M melanoma
MCF7 breast = tested on: MCF7 breast
MDA-MB-231 breast = tested on: MDA-MB-231 breast
MDA-MB-435 = tested on: MDA-MB-435
MOLT-4 leukemia = tested on: MOLT-4 leukemia
NCI-H226 lung = tested on: NCI-H226 lung
NCI-H23 lung = tested on: NCI-H23 lung
NCI-H460 lung = tested on: NCI-H460 lung
NCI-H522 lung = tested on: NCI-H522 lung
NCI/ADR-RES ovarian = tested on: NCI/ADR-RES ovarian
OVCAR-3 ovarian = tested on: OVCAR-3 ovarian
OVCAR-4 ovarian = tested on: OVCAR-4 ovarian
OVCAR-5 ovarian = tested on: OVCAR-5 ovarian
OVCAR-8 ovarian = tested on: OVCAR-8 ovarian
PC-3 prostate = tested on: PC-3 prostate
RPMI-8226 leukemia = tested on: RPMI-8226 leukemia
RXF 393 renal = tested on: RXF 393 renal
SF-268 CNS = tested on: SF-268 CNS
SF-295 CNS = tested on: SF-295 CNS
SF-539 CNS = tested on: SF-539 CNS
SK-MEL-2 melanoma = tested on: SK-MEL-2 melanoma
SK-MEL-28 melanoma = tested on: SK-MEL-28 melanoma
SK-MEL-5 melanoma = tested on: SK-MEL-5 melanoma
SK-OV-3 ovarian = tested on: SK-OV-3 ovarian
SN12C renal = tested on: SN12C renal
SNB-19 CNS = tested on: SNB-19 CNS
SNB-75 CNS = tested on: SNB-75 CNS
SR leukemia = tested on: SR leukemia
SW-620 colon = tested on: SW-620 colon
T-47D breast = tested on: T-47D breast
TK-10 renal = tested on: TK-10 renal
U251 CNS = tested on: U251 CNS
UACC-257 melanoma = tested on: UACC-257 melanoma
UACC-62 melanoma = tested on: UACC-62 melanoma
UO-31 renal = tested on: UO-31 renal

O=C1/C(=C/c2ccc(Cl)cc2)CN(C(=O)CCN2CCC(=NO)CC2)C/C1=C\c1ccc(Cl)cc1
GI50 (786-0 renal): 0.786 µM | TGI (786-0 renal): 2.12 µM | GI50 (A498 renal): 1.15 µM | TGI (A498 renal): 2.41 µM | GI50 (A549 NSCLC): 1.65 µM | TGI (A549 NSCLC): 3.77 µM | GI50 (ACHN renal): 0.557 µM | TGI (ACHN renal): 1.56 µM | GI50 (BT-549 breast): 1.47 µM | TGI (BT-549 breast): 2.85 µM | GI50 (CAKI-1 renal): 0.649 µM | TGI (CAKI-1 renal): 1.85 µM | GI50 (CCRF-CEM leukemia): 0.317 µM | TGI (CCRF-CEM leukemia): > 22.3 µM | GI50 (COLO 205 colon): 0.345 µM | TGI (COLO 205 colon): 1.32 µM | GI50 (DU-145 prostate): 1.28 µM | TGI (DU-145 prostate): 2.6 µM | GI50 (EKVX NSCLC): 1.62 µM | TGI (EKVX NSCLC): 3.45 µM | GI50 (HCC-2998 colon): 0.699 µM | TGI (HCC-2998 colon): 1.88 µM | GI50 (HCT-116 colon): 0.245 µM | TGI (HCT-116 colon): 0.654 µM | GI50 (HCT-15 colon): 0.383 µM | TGI (HCT-15 colon): 1.38 µM | GI50 (HL-60(TB) leukemia): 1.37 µM | TGI (HL-60(TB) leukemia): 4.9 µM | GI50 (HOP-62 NSCLC): 0.894 µM | TGI (HOP-62 NSCLC): 2.41 µM | GI50 (HOP-92 NSCLC): 1.64 µM | TGI (HOP-92 NSCLC): 3.54 µM | GI50 (HS 578T breast): 1.27 µM | TGI (HS 578T breast): 6.43 µM | GI50 (HT29 colon): 0.338 µM | TGI (HT29 colon): 1.31 µM | GI50 (IGROV1 ovarian): 0.807 µM | TGI (IGROV1 ovarian): 2.05 µM | GI50 (K-562 leukemia): 0.23 µM | GI50 (KM12 colon): 0.388 µM | TGI (KM12 colon): 0.935 µM | GI50 (LOX IMVI melanoma): 0.224 µM | TGI (LOX IMVI melanoma): 0.57 µM | GI50 (M14 melanoma): 0.754 µM | TGI (M14 melanoma): 2.3 µM | GI50 (MALME-3M melanoma): 1.5 µM | TGI (MALME-3M melanoma): 3.12 µM | GI50 (MCF7 breast): 0.284 µM | TGI (MCF7 breast): 1.59 µM | GI50 (MDA-MB-231 breast): 0.637 µM | TGI (MDA-MB-231 breast): 1.89 µM | GI50 (MDA-MB-435): 0.631 µM | TGI (MDA-MB-435): 1.76 µM | GI50 (MOLT-4 leukemia): 0.397 µM | GI50 (NCI-H226 lung): 1.35 µM | TGI (NCI-H226 lung): 2.75 µM | GI50 (NCI-H23 lung): 1.13 µM | TGI (NCI-H23 lung): 2.63 µM | GI50 (NCI-H460 lung): 0.888 µM | TGI (NCI-H460 lung): 2.73 µM | GI50 (NCI-H522 lung): 0.731 µM | TGI (NCI-H522 lung): 2.29 µM | GI50 (NCI/ADR-RES ovarian): 0.93 µM | TGI (NCI/ADR-RES ovarian): 3.75 µM | GI50 (OVCAR-3 ovarian): 0.628 µM | TGI (OVCAR-3 ovarian): 1.78 µM | GI50 (OVCAR-4 ovarian): 0.834 µM | TGI (OVCAR-4 ovarian): 2.39 µM | GI50 (OVCAR-5 ovarian): 1.36 µM | TGI (OVCAR-5 ovarian): 2.85 µM | GI50 (OVCAR-8 ovarian): 0.823 µM | TGI (OVCAR-8 ovarian): 2.62 µM | GI50 (PC-3 prostate): 0.481 µM | TGI (PC-3 prostate): 1.57 µM | GI50 (RPMI-8226 leukemia): 0.157 µM | TGI (RPMI-8226 leukemia): 0.552 µM | GI50 (RXF 393 renal): 1.46 µM | TGI (RXF 393 renal): 2.87 µM | GI50 (SF-268 CNS): 0.942 µM | TGI (SF-268 CNS): 2.98 µM | GI50 (SF-295 CNS): 1.46 µM | TGI (SF-295 CNS): 2.86 µM | GI50 (SF-539 CNS): 1.21 µM | TGI (SF-539 CNS): 2.55 µM | GI50 (SK-MEL-2 melanoma): 1.95 µM | TGI (SK-MEL-2 melanoma): 3.92 µM | GI50 (SK-MEL-28 melanoma): 1.57 µM | TGI (SK-MEL-28 melanoma): 2.96 µM | GI50 (SK-MEL-5 melanoma): 1.66 µM | TGI (SK-MEL-5 melanoma): 3.1 µM | GI50 (SK-OV-3 ovarian): 1.94 µM | TGI (SK-OV-3 ovarian): 4.21 µM | GI50 (SN12C renal): 0.637 µM | TGI (SN12C renal): 1.68 µM | GI50 (SNB-19 CNS): 0.817 µM | TGI (SNB-19 CNS): 2.17 µM | GI50 (SNB-75 CNS): 1.31 µM | TGI (SNB-75 CNS): 2.61 µM | GI50 (SR leukemia): 0.114 µM | GI50 (SW-620 colon): 0.179 µM | TGI (SW-620 colon): 0.467 µM | GI50 (T-47D breast): 1.08 µM | TGI (T-47D breast): 4.26 µM | GI50 (TK-10 renal): 1.46 µM | TGI (TK-10 renal): 2.93 µM | GI50 (U251 CNS): 0.53 µM | TGI (U251 CNS): 1.28 µM | GI50 (UACC-257 melanoma): 1.67 µM | TGI (UACC-257 melanoma): 3.43 µM | GI50 (UACC-62 melanoma): 0.585 µM | TGI (UACC-62 melanoma): 1.72 µM | GI50 (UO-31 renal): 1.01 µM | TGI (UO-31 renal): 2.3 µM

Reference: PubChem BioAssay (NCI)
